Where two headings read alike, the source gives them in different places.
Columns and labels:
[1] = test system: clinical P. aeruginosa isolates; experiment: microbe, parasite or virus in culture; conditions: Pseudomonas aeruginosa, 18 h
In short: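 Broth microdilution per CLSI in MHB, two-fold drug dilutions mixed with an equal volume of bacteria at about 1 × 10^6 CFU/mL. After 18 h at 37 °C, MIC taken as the lowest concentration with no visible growth; run in triplicate.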

P. aeruginosa PA14 = experiment: microbe, parasite or virus in culture; parameters: MICa: MIC of the antibiotic / MICac: MIC of the antibiotic in the combination: unit not given beside the values; conditions: strain PA14; for FICI: antibiotic + D-11 (MICb/MICbc 128/4); for MICa: MIC of the antibiotic: antibiotic alone; for MICa: MIC of the antibiotic / MICac: MIC of the antibiotic in the combination: unit not given; for MICac: MIC of the antibiotic in the combination: with D-11 at MICbc 4
In short: (§1)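 Growth inhibition was scored by eye after an 18 h, 37 °C incubation of drug-bacteria mixtures in Mueller-Hinton broth. Inoculum suspension held approximately 1 × 10^6 CFU/mL before 1:1 mixing.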

P. aeruginosa ATCC27853 = experiment: microbe, parasite or virus in culture; parameters: MICa: MIC of the antibiotic / MICac: MIC of the antibiotic in the combination: unit not given beside the values; conditions: for FICI: antibiotic + D-11 (MICb/MICbc 32/4); for MICac: MIC of the antibiotic in the combination: with D-11 at MICbc 4
In short: as §1

P. aeruginosa NR-31040 = experiment: microbe, parasite or virus in culture; parameters: MICa: MIC of the antibiotic / MICac: MIC of the antibiotic in the combination: unit not given beside the values; conditions: for FICI: antibiotic + D-11 (MICb/MICbc 128/4); for MICac: MIC of the antibiotic in the combination: with D-11 at MICbc 4
In short: as §1

P. aeruginosa NR-31041 = experiment: microbe, parasite or virus in culture; parameters: MICa: MIC of the antibiotic / MICac: MIC of the antibiotic in the combination: unit not given beside the values; conditions: for MIC: Pseudomonas aeruginosa, NR31041, 18 h, read-out: MICa: MIC of the antibiotic; for FICI: antibiotic + D-11 (MICb/MICbc 64/4)
In short: as §1

P. aeruginosa PAK = experiment: microbe, parasite or virus in culture; parameters: MICa: MIC of the antibiotic / MICac: MIC of the antibiotic in the combination: unit not given beside the values; conditions: for FICI: antibiotic + D-11 (MICb/MICbc 64/4); for MICac: MIC of the antibiotic in the combination: with D-11 at MICbc 4
In short: as §1

P. aeruginosa AUMC-Pa-2 = conditions: strain AUMC-Pa-2; antibiotic + D-11 (MICb/MICbc 64/4)
In short: as §1

P. aeruginosa AUMC-Pa-1 = conditions: strain AUMC-Pa-1; antibiotic + D-11 (MICb/MICbc 128/4)
In short: as §1

P. aeruginosa HM-214 = conditions: strain HM-214; antibiotic + D-11 (MICb/MICbc 128/4)
In short: as §1

P. aeruginosa AUMC-Pa-5 = experiment: microbe, parasite or virus in culture; conditions: strain AUMC-Pa-5; for FICI: antibiotic + D-11 (MICb/MICbc 64/4); for MICa: MIC of the antibiotic: antibiotic alone; for MICa: MIC of the antibiotic / MICac: MIC of the antibiotic in the combination: unit not given; for MICac: MIC of the antibiotic in the combination: with D-11 at MICbc 4
In short: as §1

P. aeruginosa AUMC-Pa-3 = experiment: microbe, parasite or virus in culture; conditions: for FICI: antibiotic + D-11 (MICb/MICbc 128/4); for MICac: MIC of the antibiotic in the combination: with D-11 at MICbc 4
In short: as §1

P. aeruginosa PAO1 = experiment: microbe, parasite or virus in culture
In short: as §1

P. aeruginosa AUMC-Pa-6 = experiment: microbe, parasite or virus in culture; conditions: for FICI: antibiotic + D-11 (MICb/MICbc 64/4); for MICac: MIC of the antibiotic in the combination: with D-11 at MICbc 4
In short: as §1

P. aeruginosa AUMC-Pa-4 = experiment: microbe, parasite or virus in culture; conditions: for FICI: antibiotic + D-11 (MICb/MICbc 128/4); for MICac: MIC of the antibiotic in the combination: with D-11 at MICbc 4
In short: as §1

[2] = strain ATCC27853, unit not given
[3] = strain NR-31040, unit not given
[4] = strain AUMC-Pa-3, unit not given
[5] = S3 Table, PAO1, antibiotic + 2 μM D-11
[6] = S3 Table, PAO1, antibiotic + 4 μM D-11
[7] = strain AUMC-Pa-6, unit not given
[8] = strain AUMC-Pa-4, unit not given

Question: Which results are given for CN(C)c1cc(NC(=O)CNC(C)(C)C)c(O)c2c1C[C@H]1C[C@H]3[C@H](N(C)C)C(O)=C(C(N)=O)C(=O)[C@@]3(O)C(O)=C1C2=O [Tigecycline]?
Answer: MIC ([1]; read-out: Antibiotic sensibility (MIC) of clinical P. aeruginosa isolate AUMC-Pa-1, strain AUMC-Pa-1, antibiotic alone): 8 µM; MIC ([1]; read-out: Antibiotic sensibility (MIC) of clinical P. aeruginosa isolate AUMC-Pa-2, strain AUMC-Pa-2, antibiotic alone): 2 µM; MIC ([1]; read-out: Antibiotic sensibility (MIC) of clinical P. aeruginosa isolate AUMC-Pa-3, strain AUMC-Pa-3, antibiotic alone): 4 µM; MIC ([1]; read-out: Antibiotic sensibility (MIC) of clinical P. aeruginosa isolate AUMC-Pa-4, strain AUMC-Pa-4, antibiotic alone): 8 µM; MIC ([1]; read-out: Antibiotic sensibility (MIC) of clinical P. aeruginosa isolate AUMC-Pa-5, strain AUMC-Pa-5, antibiotic alone): 8 µM; MIC ([1]; read-out: Antibiotic sensibility (MIC) of clinical P. aeruginosa isolate AUMC-Pa-6, strain AUMC-Pa-6, antibiotic alone): 8 µM; MIC ([1]; read-out: Antibiotic sensibility (MIC) of clinical P. aeruginosa isolate HM-214, strain HM-214, antibiotic alone): 4 µM; MIC ([1]; read-out: Antibiotic sensibility (MIC) of clinical P. aeruginosa isolate NR-31040, strain NR-31040, antibiotic alone): 8 µM; MIC ([1]; read-out: Antibiotic sensibility (MIC) of clinical P. aeruginosa isolate NR-31041, strain NR-31041, antibiotic alone): 8 µM; FICI (P. aeruginosa PA14): 0.281; MICa: MIC of the antibiotic (P. aeruginosa PA14): 4; MICac: MIC of the antibiotic in the combination (P. aeruginosa PA14): 1; FICI (P. aeruginosa ATCC27853; strain ATCC27853): 0.375; MICa: MIC of the antibiotic (P. aeruginosa ATCC27853; strain ATCC27853, antibiotic alone, unit not given): 4; MICac: MIC of the antibiotic in the combination (P. aeruginosa ATCC27853; [2]): 1; MIC (P. aeruginosa NR-31040; Pseudomonas aeruginosa, NR31040, 18 h, read-out: MICa: MIC of the antibiotic): 8 µM; FICI (P. aeruginosa NR-31040; strain NR-31040): 0.094; MICac: MIC of the antibiotic in the combination (P. aeruginosa NR-31040; [3]): 0.5; MIC (P. aeruginosa NR-31041): 8.1 µM; FICI (P. aeruginosa NR-31041; strain NR-31041): 0.188; FICI (P. aeruginosa PAK; strain PAK): 0.313; MICa: MIC of the antibiotic (P. aeruginosa PAK; strain PAK, antibiotic alone, unit not given): 4; MICac: MIC of the antibiotic in the combination (P. aeruginosa PAK; strain PAK, unit not given): 1; FICI (P. aeruginosa AUMC-Pa-2): 0.563; FICI (P. aeruginosa AUMC-Pa-1): 0.281; FICI (P. aeruginosa HM-214): 0.281; FICI (P. aeruginosa AUMC-Pa-5): 1.063; MICa: MIC of the antibiotic (P. aeruginosa AUMC-Pa-5): 8/8; MICac: MIC of the antibiotic in the combination (P. aeruginosa AUMC-Pa-5): 8/8; FICI (P. aeruginosa AUMC-Pa-3; strain AUMC-Pa-3): 0.281; MICa: MIC of the antibiotic (P. aeruginosa AUMC-Pa-3; strain AUMC-Pa-3, antibiotic alone, unit not given): 4; MICac: MIC of the antibiotic in the combination (P. aeruginosa AUMC-Pa-3; [4]): 1; FICI (P. aeruginosa PAO1; [5]): 0.313; FICI (P. aeruginosa PAO1; [6]): 0.375; MICac: the MIC for the antibiotic in the combination (P. aeruginosa PAO1; S3 Table, PAO1, with 2 μM D-11): 1 µM; MICac: the MIC for the antibiotic in the combination (P. aeruginosa PAO1; S3 Table, PAO1, with 4 μM D-11): 1 µM; MICa: the MIC of antibiotics (P. aeruginosa PAO1; S3 Table, antibiotic alone, PAO1): 4 µM; FICI (P. aeruginosa AUMC-Pa-6; strain AUMC-Pa-6): 0.313; MICa: MIC of the antibiotic (P. aeruginosa AUMC-Pa-6; strain AUMC-Pa-6, antibiotic alone, unit not given): 8; MICac: MIC of the antibiotic in the combination (P. aeruginosa AUMC-Pa-6; [7]): 2; FICI (P. aeruginosa AUMC-Pa-4; strain AUMC-Pa-4): 0.281; MICa: MIC of the antibiotic (P. aeruginosa AUMC-Pa-4; strain AUMC-Pa-4, antibiotic alone, unit not given): 8; MICac: MIC of the antibiotic in the combination (P. aeruginosa AUMC-Pa-4; [8]): 2

Question: What does the source list for CO[C@@H]1[C@@H](OC(=O)c2ccc(C)[nH]2)[C@@H](O)[C@H](Oc2ccc3c(O)c(NC(=O)c4ccc(O)c(CC=C(C)C)c4)c(=O)oc3c2Cl)OC1(C)C [Chlorobiocin]?
Answer: MIC ([1]; read-out: Antibiotic sensibility (MIC) of clinical P. aeruginosa isolate AUMC-Pa-1): 4 µM; MIC ([1]; read-out: Antibiotic sensibility (MIC) of clinical P. aeruginosa isolate AUMC-Pa-2): 0.25 µM; MIC ([1]; read-out: Antibiotic sensibility (MIC) of clinical P. aeruginosa isolate AUMC-Pa-3): 0.5 µM; MIC ([1]; read-out: Antibiotic sensibility (MIC) of clinical P. aeruginosa isolate AUMC-Pa-4): 0.25 µM; MIC ([1]; read-out: Antibiotic sensibility (MIC) of clinical P. aeruginosa isolate AUMC-Pa-5): 1 µM; MIC ([1]; read-out: Antibiotic sensibility (MIC) of clinical P. aeruginosa isolate AUMC-Pa-6): 0.25 µM; MIC ([1]; read-out: Antibiotic sensibility (MIC) of clinical P. aeruginosa isolate HM-214): 1 µM; MIC ([1]; read-out: Antibiotic sensibility (MIC) of clinical P. aeruginosa isolate NR-31040): 1 µM; MIC ([1]; read-out: Antibiotic sensibility (MIC) of clinical P. aeruginosa isolate NR-31041): 1 µM; FICI (P. aeruginosa PA14): 1.031; MICa: MIC of the antibiotic (P. aeruginosa PA14): 1/1; MICac: MIC of the antibiotic in the combination (P. aeruginosa PA14): 1/1; MIC (P. aeruginosa ATCC27853; Pseudomonas aeruginosa, ATCC27853, 18 h, read-out: MICa: MIC of the antibiotic): 0.5 µM; FICI (P. aeruginosa ATCC27853; strain ATCC27853): 1.125; MICac: MIC of the antibiotic in the combination (P. aeruginosa ATCC27853; [2]): 0.5/0.5; FICI (P. aeruginosa NR-31040; strain NR-31040): 1.031; MICa: MIC of the antibiotic (P. aeruginosa NR-31040; strain NR-31040, antibiotic alone, unit not given): 1/1; MICac: MIC of the antibiotic in the combination (P. aeruginosa NR-31040; [3]): 1/1; MIC (P. aeruginosa NR-31041): 1 µM; FICI (P. aeruginosa NR-31041; strain NR-31041): 0.563; MICac: MIC of the antibiotic in the combination (P. aeruginosa NR-31041; strain NR-31041, with D-11 at MICbc 4, unit not given): 0.5; MIC (P. aeruginosa PAK; Pseudomonas aeruginosa, 18 h, read-out: MICa: MIC of the antibiotic): 0.5 µM; FICI (P. aeruginosa PAK; strain PAK): 1.063; MICac: MIC of the antibiotic in the combination (P. aeruginosa PAK; strain PAK, unit not given): 0.5/0.5; FICI (P. aeruginosa AUMC-Pa-2): 2.063; FICI (P. aeruginosa AUMC-Pa-1): 1.031; FICI (P. aeruginosa HM-214): 1.031; FICI (P. aeruginosa AUMC-Pa-5): 2.063; MICa: MIC of the antibiotic (P. aeruginosa AUMC-Pa-5): 1; MICac: MIC of the antibiotic in the combination (P. aeruginosa AUMC-Pa-5): 2; MIC (P. aeruginosa AUMC-Pa-3; Pseudomonas aeruginosa, AUMCPA3, 18 h, read-out: MICa: MIC of the antibiotic): 0.5 µM; FICI (P. aeruginosa AUMC-Pa-3; strain AUMC-Pa-3): 1.031; MICac: MIC of the antibiotic in the combination (P. aeruginosa AUMC-Pa-3; [4]): 0.5/0.5; MIC (P. aeruginosa PAO1; Pseudomonas aeruginosa, PAO1, 18 h, read-out: MICa: the MIC of antibiotics): 0.5 µM; FICI (P. aeruginosa PAO1; [5]): 0.313; FICI (P. aeruginosa PAO1; [6]): 0.375; MICac: the MIC for the antibiotic in the combination (P. aeruginosa PAO1; S3 Table, PAO1, with 2 μM D-11): 0.125 µM; MICac: the MIC for the antibiotic in the combination (P. aeruginosa PAO1; S3 Table, PAO1, with 4 μM D-11): 0.125 µM; MIC (P. aeruginosa AUMC-Pa-6; Pseudomonas aeruginosa, AUMCPA6, 18 h, read-out: MICa: MIC of the antibiotic): 0.25 µM; FICI (P. aeruginosa AUMC-Pa-6; strain AUMC-Pa-6): 1.063; MICac: MIC of the antibiotic in the combination (P. aeruginosa AUMC-Pa-6; [7]): 0.25/0.25; MIC (P. aeruginosa AUMC-Pa-4; Pseudomonas aeruginosa, AUMCPA4, 18 h, read-out: MICa: MIC of the antibiotic): 0.25 µM; FICI (P. aeruginosa AUMC-Pa-4; strain AUMC-Pa-4): 2.031; MICac: MIC of the antibiotic in the combination (P. aeruginosa AUMC-Pa-4; [8]): 0.5

— paper PMC8445441, “Elucidating the mechanism by which synthetic helper peptides sensitize Pseudomonas aeruginosa to multiple antibiotics” (PLoS Pathogens, 2021)
